Earlier results, collected in patent US9789102B2, “H3 receptor antagonist for use in the treatment of alzheimer's disease” (SANOFI, priority 2012, dated 2017).

Test system: protein tau hyperphosphorylation
Details: 2-week treatment; TAPP transgenic mice; histopathological studies; cited from earlier work

SMILES: C[C@@H]1CCCN1CCc1cc2cc(-c3ccc(C#N)cc3)ccc2o1 [ABT-239]
- protein tau hyperphosphorylation in the spinal cord and hippocampus: effect
